Laboratory results: patent US20100221769A1, “ELECTROPORATIVE FLOW CYTOMETRY” (priority 2007, published 2010)

Tests used:
MCF-7 cells [1] = assay: EFC cell swelling during flow-through electroporation; format: cell-based, human
Protocol: Cell culture. MCF-7 and MCF-10A cell lines were obtained from American Type Culture Collection (ATCC, Manassas, Va.) and cultured according to recommended protocols. Briefly, MCF-10A cell line was cultured in DMEM F-12 supplemented with Horse Serum (5.6%), EGF (20 ng/ml), Insulin (10 μg/ml), antibiotics (1%) and Hydrocortisone (0.5 μg/ml). The MCF-7 cell line was cultured in DMEM supplemented with FBS (10%), Penicillin/streptomycin (1%) and L-glutamine (2 mM). The TPA treated MCF-7 cell line was generated by treating MCF-7 cells with 100 nM 12-O-tetradecanoylphorbol-13-acetate (TPA) for 18 hr before experiments. In order to detach cells from culture flasks, cells were treated with 0.1% Trypsin/EDTA, washed and resuspended using the electroporation buffer (10 mM Na2HPO4, […], and 250 mM sucrose). For the treatment of MCF-7 cells with colchicine, MCF-7 cells were incubated in the culture medium consisting of 10 μM colchicine (Sigma, St Louis, USA) for 30 min (Rots and Teissie, 1992, Biochim. Biophys. Acta 1111: 45-50). The cell suspension was then centrifuged and the supernatant was discarded. The cells were washed with the electroporation buffer and then resuspended in the electroporation buffer for testing. […]
Microchip operation and data collection/analysis. The microfluidic chip (shown in FIG. 10) was mounted on an IX-71 fluorescence microscope (Olympus, Melville, N.Y.) equipped with a 40× dry objective (NA=0.40) and an ORCA-285 CCD camera (Hamamatsu, Bridgewater, N.J.). […] However, because the cell size is monitored over time, the results should not be affected by the velocity, assuming mechanical effects such as shear stress can be ignored. […] In this case, the duration of electroporation was determined by the flow rate and the dimensions of the microfluidic channel. […]
For EFC tests, the images of cells were taken at a frame rate of 16 Hz. The cell size was monitored over time during electroporation by measuring the two-dimensional area (μm^2) of individual cells in time-sequenced images using ImageJ software from NIH. […]

MCF-7 cells [2] = assay: Cell viability (PI staining) after flow-through electroporation; format: cell-based, human; details: 0 and 200 V/cm, 200 ms, 1 hr after electroporation
MCF-7 cells [3] = details: 100 nM for 18 hr (Johnson et al., 1999); cited from earlier work

SMILES | average cell size, % of original size (MCF-7 cells [1]; 400 V/cm, 192 ms, 100 nM for 18 hr, untreated MCF-7 148%) [%] | average percentile cell size from normal distribution fit of histogram (MCF-7 cells [1]; 400 V/cm, 192 ms, about 100 cells, untreated MCF-7 150%) [%] | survival compared with MCF-10A and untreated MCF-7 (MCF-7 cells [2]) | increase in invasiveness and metastatic potential (MCF-7 cells [3]) [fold] | effect on cell deformability (swelling during electroporation vs control) (MCF-7 cells [1]; 10 μM for 30 min)
CCCCCCCCCCCCCC(=O)O[C@@H]1[C@@H](C)[C@@]2(O)[C@@H](C=C(CO)C[C@]3(O)C(=O)C(C)=C[C@@H]23)[C@@H]2C(C)(C)[C@]12OC(C)=O [TPA, 12-O-tetradecanoylphorbol-13-acetate] | 170 | 170 | better survival rate | 18 | –
COc1cc2c(c(OC)c1OC)-c1ccc(OC)c(=O)cc1[C@@H](NC(C)=O)CC2 [colchicine] | – | – | – | – | cell stiffening
